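Where inhibition never reached the appropriate level, the endpoint shown equals the highest concentration tested. Otherwise, values were interpolated linearly from a five-concentration, 48-hour dose response in 96-well plates. GI50 marks 50% less growth.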 Active and inactive are the calls of the source. Cut-off read from the data, not from the text of the source: active = GI50 up to about 1.1 µM and inactive = higher.
Experiments:
Test in all cases: inhibition of tumour cell growth, NCI panel, 48 h
SF-295 = test system: SF-295
SR = test system: SR
SK-MEL-2 = test system: SK-MEL-2
NCI-H522 = test system: NCI-H522
HL-60 = test system: HL-60
M14 = test system: M14
A549 = test system: A549
A498 = test system: A498
TK-10 = test system: TK-10
SNB-75 = test system: SNB-75
MDA-MB-231 = test system: MDA-MB-231
786-0 = test system: 786-0
MCF7 = test system: MCF7
Hs-578T = test system: Hs-578T
NCI/ADR-RES = test system: NCI/ADR-RES
SF-539 = test system: SF-539
CCRF-CEM = test system: CCRF-CEM
K562 = test system: K562
SN12C = test system: SN12C
MDA-N = test system: MDA-N

Measured: GI50

N[C@H](C(=O)O)[C@@H]1CC(Br)=NO1
inactive: SF-295 73.6 µM | SR 44.1 µM | SK-MEL-2 > 100 µM | NCI-H522 77.4 µM | HL-60 > 100 µM | M14 53.5 µM | A549 87.5 µM | A498 > 100 µM | TK-10 47.1 µM | SNB-75 62.4 µM | MDA-MB-231 > 100 µM | 786-0 99.8 µM | MCF7 41.5 µM | Hs-578T > 100 µM | NCI/ADR-RES > 100 µM | SF-539 97.7 µM

Cc1ccc2c(c1)C(C(=O)N[C@@H]1C(=O)N3[C@@H]1SC(C)(C)[C@@H]3C(=O)O)OCCC2 (stereo partly specified)
inactive: CCRF-CEM > 100 µM | SF-295 > 100 µM | SR > 100 µM | SK-MEL-2 > 100 µM | NCI-H522 > 100 µM | HL-60 > 100 µM | M14 > 100 µM | A549 > 100 µM | A498 > 100 µM | K562 > 100 µM | TK-10 > 100 µM | SN12C > 100 µM | SNB-75 > 100 µM | MDA-MB-231 > 100 µM | 786-0 > 100 µM | MCF7 > 100 µM | Hs-578T > 100 µM | NCI/ADR-RES > 100 µM | SF-539 > 100 µM

COC1OC(C(=O)O)C2OC(C)(C)OC12 (stereo unspecified)
inactive: CCRF-CEM > 100 µM | MDA-N > 100 µM | SF-295 > 100 µM | SR > 100 µM | SK-MEL-2 > 100 µM | NCI-H522 > 100 µM | M14 > 100 µM | A549 > 100 µM | K562 > 100 µM | TK-10 > 100 µM | SN12C > 100 µM | SNB-75 > 100 µM | MDA-MB-231 > 100 µM | 786-0 > 100 µM | MCF7 > 100 µM | NCI/ADR-RES > 100 µM | SF-539 > 100 µM

O=c1[nH]c(=S)c2cc3c(=S)[nH]c(=O)n(CCC(c4ccccc4)(c4ccccc4)c4ccccc4)c3nc2n1CCC(c1ccccc1)(c1ccccc1)c1ccccc1
inactive: CCRF-CEM 13.6 µM | MDA-N > 100 µM | SF-295 > 100 µM | SK-MEL-2 > 100 µM | NCI-H522 > 100 µM | M14 > 100 µM | A549 > 100 µM | A498 > 100 µM | K562 24.8 µM | TK-10 > 100 µM | SN12C > 100 µM | SNB-75 > 100 µM | MDA-MB-231 59.4 µM | 786-0 > 100 µM | MCF7 > 100 µM | NCI/ADR-RES > 100 µM

CN1CNc2nc(N)n(C)c(=O)c2C1
inactive: CCRF-CEM > 10 µM | MDA-N > 10 µM | SF-295 > 10 µM | SR > 10 µM | SK-MEL-2 > 10 µM | NCI-H522 > 10 µM | HL-60 > 10 µM | M14 > 10 µM | A549 > 10 µM | K562 > 10 µM | TK-10 > 10 µM | SN12C > 10 µM | SNB-75 7.46 µM | 786-0 > 10 µM | NCI/ADR-RES > 10 µM | SF-539 > 10 µM

O=C1CNc2cc(N3CCN(c4ccccc4)CC3)ccc2N1
inactive: CCRF-CEM > 100 µM | SF-295 > 100 µM | SR > 100 µM | SK-MEL-2 > 100 µM | NCI-H522 > 100 µM | HL-60 > 100 µM | M14 > 100 µM | A549 > 100 µM | A498 > 100 µM | K562 > 100 µM | TK-10 > 100 µM | SNB-75 > 100 µM | MDA-MB-231 > 100 µM | 786-0 > 100 µM | Hs-578T > 100 µM | NCI/ADR-RES > 100 µM

C1=CC2CCC1CN2CCC1CNc2ccccc21 (stereo unspecified)
inactive: CCRF-CEM > 100 µM | SF-295 > 100 µM | SR > 100 µM | SK-MEL-2 > 100 µM | NCI-H522 > 100 µM | HL-60 > 100 µM | M14 > 100 µM | A549 > 100 µM | A498 > 100 µM | K562 > 100 µM | TK-10 > 100 µM | SN12C > 100 µM | SNB-75 > 100 µM | 786-0 > 100 µM | SF-539 > 100 µM

CC(C)=CCCC1(Sc2ccccc2)C(=O)OCC1C=C(C)C (stereo unspecified)
inactive: CCRF-CEM 32.4 µM | MDA-N 19.9 µM | SF-295 36.7 µM | SK-MEL-2 18.5 µM | NCI-H522 23.2 µM | M14 17.3 µM | A549 13.5 µM | A498 52.4 µM | TK-10 34.8 µM | SN12C 15 µM | SNB-75 36.6 µM | MDA-MB-231 47.2 µM | 786-0 17.7 µM | MCF7 38.9 µM | NCI/ADR-RES 21.2 µM | SF-539 20.6 µM

Cn1cnc(S[C@H]2[C@H]3C(=O)C=C4S[C@H]5C[C@]42C2=C(N5)C(=O)c4[nH]cc5c4C2=[N+]3CC5)c1C[C@H](N)C(=O)O
inactive: CCRF-CEM 17.1 µM | SF-295 15.8 µM | SR 19.1 µM | SK-MEL-2 13.7 µM | NCI-H522 4.58 µM | HL-60 15.3 µM | M14 15.4 µM | A549 20.4 µM | A498 18.8 µM | K562 17.3 µM | TK-10 38.3 µM | SN12C 3.56 µM | SNB-75 18.7 µM | 786-0 19 µM | SF-539 16.5 µM

Reference: ChEMBL document CHEMBL1201862, “PubChem BioAssay data set” (2004)
